Values joined by “and” are separate entries in the source; they are usually repeats but may differ in a detail not shown here. Identical values can stand only once.

With `CCCCC#N` [butyl_cyanide], the melting point is -96 °C.

Compound `Oc1ccccc1-c1ccccc1` [Biphenyl-2-ol] came in with a melting point of 57 °C.

On to `Cc1[nH]cnc1C=O` [5-methylimidazole-4-carboxaldehyde], for which the melting point is 168 °C.

For `CC(C)(C)C(=O)Cl` [trimethylacetyl chloride], the melting point was -57 °C.

`CC(=O)Nc1ccc(Br)cc1OC(F)(F)F` [4'-bromo-2'-(trifluoromethoxy)acetanilide] displayed a melting point of 136 °C.

With `O=C(NCc1ccccc1)OCCO` [buramate], the melting point is 40 °C.

The compound `O=C1CCC2CCc3ccccc3C2O1` (stereo unspecified) [3,4,4a,5,6,10b-hexahydro-2H-benzo[h]chromen-2-one] registered a melting point of 139 °C.

In turn, `CC(=O)OC1CCC2(C)C(CC(=O)C3C4CCC(=O)C4(C)CCC32)C1` (stereo unspecified) [7,17-dioxoandrostan-3-yl acetate] showed a melting point of 165 °C.

Consider `CCOC(=O)c1ccccc1N` [ethyl_2-aminobenzoate], for which the melting point is 14 °C.

In the case of `O=C(O)c1ccc(O)cc1O` [2,4-Dihydroxybenzoic Acid], the melting point was 226 °C.

In the case of `O=S(=O)=O` [Oxosulfane dioxide], the melting point was 16.8 °C.

`Cc1c(C)c(C)c(Br)c(C)c1C` [1-bromo-2,3,4,5,6-pentamethylbenzene] yielded a melting point of 165 °C.

`BrC(Br)Br` [bromoform] registered a melting point of 9 °C.

Turning to `C/C(=C/C(=O)NN)C(=O)NN` [citraconic hydrazide], the melting point came out at 286 °C.

For `O=C(c1ccccc1)c1ccc(C(F)(F)F)cc1` [FXFFR DVR], the melting point was 116 °C.

On to `CC(C)(C)I` [2-Iodo-2-methylpropane], for which the melting point was -38 °C.

In the case of `N#Cc1ccccc1C=O` [2-cyanobenzaldehyde], the melting point amounted to 104 °C.

`O=c1cc(-c2ccc(O)c(O)c2)oc2ccccc12` [3',4'-dihydroxyflavone] gave a melting point of 251 °C.

The compound `OB(O)c1c(F)c(F)c(F)c(F)c1F` [2,3,4,5,6-pentafluorobenzeneboronic acid] yielded a melting point of 253 °C.

Compound `ClC1C(Cl)C(Cl)C(Cl)C(Cl)C1Cl` (stereo unspecified) [1,2,3,4,5,6-Hexachlorocyclohexane] had a melting point of 113 °C.

Take `CCCCCCCCCCC(=O)O` [undecanoic acid]: the melting point is 28.6 °C.

For the compound `C=C(Br)CC1(C(C)CC)C(=O)NC(=O)NC1=O` (stereo unspecified) [butallylonal], the melting point worked out at 132 °C.

Consider `[C-]#[N+]c1c(C)cccc1C` [2,6-dimethylphenyl isocyanide], for which the melting point worked out at 74 °C.

`Cc1ccc(-c2ccccc2)cc1` [1-methyl-4-phenylbenzene] had a melting point of 48 °C.

As to `CCOC(=O)/C=C/c1ccccc1` [Ethyl (2E)-3-phenylacrylate], the melting point worked out at 7 °C.

The compound `Cc1ccnc(NS(=O)(=O)c2ccc(N)cc2)n1` [Sulfamerazine] had a melting point of 235 °C.

In turn, `COC(=O)CS(C)(=O)=O` [methyl methylsulfonylacetate] returned a melting point of 61 °C.

Compound `O=C(O)/C(=C/c1cccc2ccccc12)c1ccccc1` [(2E)-3-naphthalen-1-yl-2-phenylprop-2-enoic acid] had a melting point of 161 °C.

Compound `CCCCC(CC)COC(=O)c1ccccc1C(=O)OCC(CC)CCCC` (stereo unspecified) [bis-2-ethylhexyl_phthalate] returned a melting point of -50 °C.

With `CCCCCCCCOc1ccc(N(NC(=O)OC(C)(C)C)C(=O)OC(C)(C)C)cc1OCCCCCCCC`, the melting point came to 56 °C.

Consider `CCc1ccc(Br)cc1` [1-bromo-4-ethylbenzene], for which the melting point is -43 °C.

As to `CCCCCCCCCCCCCCCC` [Hexadecane], the melting point was 18 °C.

In turn, `CCCCC` [Pentane] gave a melting point of -130 °C.

`C1=NN=C2CSCC12` (stereo unspecified) [4,6-dihydro-1H-thieno[3,4-c]pyrazole]: the melting point worked out at 133 °C.

The compound `FC(F)Cl` [Chloro(difluoro)methane] registered a melting point of -146 °C.

The compound `CNc1ccccc1` [N-methylaniline] displayed a melting point of -57 °C.

In the case of `O=C(/C=C/C=C/c1ccccc1)/C=C/C=C/c1ccccc1` [1,9-diphenyl-1,3,6,8-nonatetraen-5-one], the melting point was 142 °C.

Turning to `O=[N+]([O-])c1cccc(CBr)c1` [3-nitrobenzyl_bromide], the melting point was determined as 59 °C.

`CCC/C=C\CCC` [cis-4-octene] returned a melting point of -119 °C.

In turn, `O=C(CCCN1CCC(O)(c2ccc(Cl)cc2)CC1)c1ccc(F)cc1` [Haloperidol] returned a melting point of 152 °C.

`CCC(C)NC(=O)C(C(F)(F)F)C(F)(F)F` (stereo unspecified) came in with a melting point of 112 °C.

`CC(=O)Nc1ccccc1/C=C/c1ccccc1` [N-{2-[(E)-2-phenylethenyl]phenyl}acetamide]: the melting point stood at 113 °C.

Consider `O=C4\C=C2/[C@]([C@H]1CC[C@@]3([C@@H](O)CC[C@H]3[C@@H]1CC2)C)(C)CC4` [testosterone], for which the melting point was 155 °C and 154 °C.

In turn, `OB(O)c1cc(F)c(F)c(F)c1` [3,4,5-trifluorobenzeneboronic acid] displayed a melting point of 277 °C.

`CC(=O)Oc1cccc(-c2ccccc2)c1` [3-acetoxybiphenyl] returned a melting point of 34 °C.

Regarding `CC(C)Br` [2-bromopropane], the melting point is -89 °C.

Turning to `BrCBr` [dibromomethane], the melting point is -53 °C.

`Cc1ncccc1O` [3-hydroxy-2-methylpyridine] gave a melting point of 168 °C.

As to `ClC(Cl)Br` [bromodichloromethane], the melting point was -55 °C.

For `CC1(C)C(=O)OOC1=O` [4,4-dimethyl-1,2-dioxolane-3,5-dione], the melting point is 45 °C.

The compound `COc1ccc2cc(C(C)O)ccc2c1` (stereo unspecified) [1-(6-methoxy-2-naphthyl)ethanol] displayed a melting point of 112 °C.

Compound `c1ccc2c(c1)ccc1cc3c(ccc4ccccc43)cc12` [1,2,5,6-Dibenzanthracene dibenz[a,h]anthracene] had a melting point of 266 °C.

`N#CCc1ccccc1C#N` [o-cyano_phenylacetonitrile]: the melting point amounted to 80 °C.

In turn, `OCCCCO` [1,4-butanediol] gave a melting point of 20 °C.

In the case of `N#CSCSC#N` [Methylene bis(thiocyanate)], the melting point was 106 °C.

`O=C(O)c1ccc(I)cc1` [p-iodobenzoic_acid] gave a melting point of 273 °C.

`Cc1ccc(/C=C(\Oc2ccccc2)c2nc3ccccc3s2)cc1` returned a melting point of 163 °C.

In the case of `Cc1ccc(C(=O)O)cc1` [4-methylbenzoic acid], the melting point is 180 °C and 181 °C.

Compound `CCC(=O)O[C@](Cc1ccccc1)(c1ccccc1)[C@H](C)CN(C)C` [propoxyphene] came in with a melting point of 75.5 °C.

Turning to `COc1ccccc1B(O)O` [2-methoxybenzeneboronic acid], the melting point is 104 °C.

In turn, `CCCCCCCCCCCCCCCCCCC` [Nonadecane] showed a melting point of 33 °C.

Compound `CCCCOC(=O)c1ccc(N)cc1` [butyl 4-aminobenzoate] gave a melting point of 58 °C.

As for `Cc1ccc(N)c(C)c1` [2,4-Dimethylaniline], the melting point turned out to be 16 °C.

In the case of `Nc1cccc(I)c1` [m-iodoaniline], the melting point came to 25 °C.

For the compound `NS(=O)(=O)c1ccc(Cl)cc1` [4-chlorobenzenesulfonamide], the melting point was determined as 146 °C.

In turn, `Cl/C=C\Cl` [(Z)-1,2-Dichloroethene] had a melting point of -80 °C.

`Cc1cccc(C)c1C` [1,2,3-Trimethylbenzene] gave a melting point of -25 °C.

In turn, `Oc1ccccc1C=Nc1ccccc1` [salicylideneaniline] had a melting point of 51 °C.

`Clc1ccc(C(c2ccc(Cl)cc2)C(Cl)(Cl)Cl)cc1` [1,1'-(2,2,2-Trichloroethane-1,1-diyl)bis(4-chlorobenzene)] displayed a melting point of 108 °C.

`OCc1ccccc1OC1OC(CO)C(O)C(O)C1O` (stereo unspecified) [2-(Hydroxymethyl)phenyl hexopyranoside]: the melting point came out at 199 °C.

`CC(C)[C@H](NC(=O)OCC1c2ccccc2-c2ccccc21)C(=O)O` [N-fmoc-L-valine]: the melting point worked out at 144 °C.

Compound `CCCCCCCCCCCCCCCCC(=O)O` [heptadecanoic acid] displayed a melting point of 61 °C.

The compound `Nc1ccc(Cl)c([N+](=O)[O-])c1` [4-chloro-3-nitroaniline] came in with a melting point of 103 °C.

`CCCCC1C(=O)N(c2ccccc2)N(c2ccccc2)C1=O` [phenylbutazone]: the melting point amounted to 107 °C.

`CC(C)CCC[C@@H](C)[C@H]1CC[C@H]2[C@@H]3CCC4=CC(=O)CC[C@]4(C)[C@H]3CC[C@]12C` [4-cholesten-3-one] came in with a melting point of 80 °C.

Regarding `O=C(O)c1cc(F)nc(F)c1F` [2,3,6-trifluoropyridine-4-carboxylic acid], the melting point is 120 °C.

Regarding `c1ccc2ccccc2c1` [naphthalene], the melting point is 80 °C and 82 °C and 81 °C.

`C=C(C#N)C(=O)OCC` [Ethyl 2-cyanoacrylate] displayed a melting point of -22 °C.

As to `C=CCC(CC)(CC)C(N)=O` [novonal], the melting point amounted to 75 °C.

As for `Oc1ccc2ccccc2c1` [2-Naphthol], the melting point is 122 °C.

Consider `Oc1ccccc1I` [2-Iodophenol], for which the melting point is 38.5 °C.

With `O=Cc1ccc(O)cc1O` [2,4-Dihydroxybenzaldehyde], the melting point was found to be 136 °C.

`C[C@@H]1O[C@@H](O)[C@@H](O)[C@H](O)[C@@H]1O` [L-fucose] registered a melting point of 139 °C.

Compound `CCCCCC(=O)O` [hexanoic acid] returned a melting point of -3 °C.

The compound `CCCCCCCCCCCCCCCCCCCCCCC` [N-tricosane] showed a melting point of 49 °C.

In turn, `COc1ccc(/C=C/[N+](=O)[O-])c(OC)c1` [2,4-dimethoxy-beta-nitrostyrene] returned a melting point of 100 °C.

On to `NC(=O)N1c2ccccc2C=Cc2ccccc21` [Carbamazepine], for which the melting point worked out at 190 °C.

`Fc1cc(OCc2ccccc2)ccc1Br` [4-benzyloxy-1-bromo-2-fluorobenzene] came in with a melting point of 34 °C.

As for `CC(=O)NC1CCCCC(NC(C)=O)CCCC1` (stereo unspecified) [N,N'-cyclodecane-1,6-diyldiacetamide], the melting point was determined as 256 °C.

Compound `CC(=O)N1CCc2cc(Br)ccc21` [1-acetyl-5-bromoindoline] gave a melting point of 120 °C.

As to `NC(=O)c1ccccc1` [benzamide], the melting point is 129 °C and 130 °C.
